Drawing on PubChem BioAssay (NCI), this text covers TGI and GI50 for 22 compounds.

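In this assay, cells in 96-well plates receive the compound at five concentrations for 48 hours. Endpoints are linearly interpolated between the surrounding concentrations. GI50 is the concentration that inhibits growth by half. TGI marks complete inhibition of growth.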 Where a SMILES comes first, the peptide text is derived from it. [ ]: non-standard residue; d: D form. The star is where a group is joined. NMeF = CN[CH](Cc1ccccc1)C(=O)O; NMeV = CN[CH](C(=O)O)C(C)C; Boc = CC(C)(C)OC(=O)*

Holding throughout (experiment): inhibition of tumour cell growth, NCI panel, 48 h
Assay [1] concerns CCRF-CEM leukemia.
In assay [2] the test system is COLO 205 colon.
In assay [3] the test system is EKVX NSCLC.
In assay [4] the test system is HT29 colon.
Assay [5] deals with IGROV1 ovarian.
For assay [6], the system named is K-562 leukemia.
The subject of assay [7] is MOLT-4 leukemia.
The test system of assay [8] is NCI-H522 lung.
Assay [9] concerns SK-MEL-28 melanoma.
In assay [10] the test system is TK-10 renal.

`O=C(O)C1OC(n2cc(F)c(=O)[nH]c2=O)CC1O` (stereo not given): the TGI in [1], in assay [2], in [3], in [4], in assay [5] and in [6] was greater than 100 µM throughout. The TGI in assay [7] is greater than 56.2 µM; in assay [8] it was greater than 100 µM; in [9], greater than 63.1 µM; in assay [10] it was greater than 100 µM.
As to `COc1ccccc1CCc1cc(OC)c(OC)c(OC)c1`, the TGI in assay [1], in assay [2], in [3], in assay [4], in assay [5] and in [6] was greater than 100 µM each time. In addition, the TGI in assay [7] is 59.9 µM; in [8], greater than 100 µM; in assay [9], greater than 100 µM; in assay [10], greater than 100 µM.
For `CCOC(=O)c1c(C)n(Cc2ccc(Cl)cc2Cl)c2c1c(CN(C)C)c(O)c1[nH]cnc12`, the GI50 in assay [1] was 2.37 µM; in [2], 20.1 µM; in [3], 22.5 µM; in assay [4] it was 18 µM; in assay [5] it was 17.1 µM; in assay [6], 3.22 µM. Besides, the GI50 was 0.908 µM in assay [7], 17.1 µM in assay [8], 20.9 µM in assay [9] and 22.7 µM in assay [10]. In addition, the TGI in assay [1] stood at 8.18 µM; in assay [2], 37.7 µM; in assay [3], 42.9 µM; in assay [4], 31.8 µM; in assay [5], 31.5 µM; in assay [6], 15.5 µM. Also, the TGI in assay [7] is 4.52 µM; in [8] it was 33.4 µM; in assay [9], 41 µM; in assay [10] it was 39.1 µM.
For `CC(C)C(NC(=O)OC(C)(C)C)C(=O)N(C)C(Cc1ccccc1)C(=O)N(C)C(C(=O)O)C(C)C` (stereo not drawn) (Boc-Val-[NMeF]-[NMeV]-OH; configuration not given here), the TGI in assay [1], in assay [2], in assay [3], in assay [4], in assay [5] and in assay [6] was greater than 100 µM each time. Moreover, the TGI in assay [7], in assay [8], in assay [9] and in [10] was greater than 100 µM in each case.
Turning to `C=C1C(=O)O[C@H]2[C@H]1CC/C(COC(=O)C(=O)c1cn(Cc3ccccc3)c3ccccc13)=C\CC[C@@]1(C)O[C@@H]21`, the GI50 in assay [1] was 1.27 µM; in [2] it was 2.08 µM; in assay [3], 2.06 µM; in [4], 2.02 µM; in assay [5], 1.92 µM; in [6], 2.66 µM. Moreover, the GI50 in assay [7] is 2.35 µM; in assay [8], 1.63 µM; in assay [9] it was 2.08 µM; in [10] it was 2.33 µM. The TGI in assay [1] was 9.02 µM; in [2], 4.46 µM; in [3], 5.96 µM; in [4], 4.53 µM; in [5], 3.84 µM; in [6], 10.4 µM. The TGI in [7] came out at 6.83 µM; in [8] it was 3.42 µM; in assay [9], 4.98 µM; in [10] it was 5.47 µM.
For `N#C/C(=C1C=C(Br)/C(=N\O)C=C\1Cl)c1cccc2ccccc12`, the TGI in assay [1] is 13.9 µM; in assay [2] it was 5.86 µM; in assay [3] it was 23.3 µM; in assay [4], 6.79 µM; in assay [5] it was greater than 100 µM; in assay [6], 14.3 µM. In addition, the TGI came out at 17.6 µM in assay [7], 6.47 µM in assay [8], 21.9 µM in assay [9] and 24.1 µM in [10].
`COc1cc(-c2ccc3c(c2)NC(=O)/C3=C\c2ccc[nH]2)ccc1O`: the GI50 was 0.0176 µM in assay [1]; 0.467 µM in assay [2]; 0.144 µM in assay [3]; 1.05 µM in assay [4]; 0.0697 µM in [5]; less than 0.0118 µM in assay [6]. Further, the GI50 is 0.032 µM in [7], 0.00747 µM in assay [8], 2.19 µM in [9] and 1.72 µM in assay [10]. Besides, the TGI is greater than 16.7 µM in assay [1]; greater than 50 µM in [2]; greater than 50 µM in assay [3]; greater than 50 µM in assay [4]; greater than 50 µM in [5]; greater than 50 µM in assay [6]. In addition, the TGI in [7] is greater than 22.1 µM; in assay [8], greater than 50 µM; in assay [9] it was greater than 50 µM; in assay [10] it was greater than 50 µM.
For the compound `O=C(N/N=C/c1ccc(Cl)cc1)c1ccc(C(F)(F)F)nc1Nc1cccc(C(F)(F)F)c1`, the GI50 in [1] is 0.344 µM; in [2] it was 1.8 µM; in [3] it was 1.97 µM; in [4], 1.44 µM; in [5], 2.4 µM; in assay [6], 3.15 µM. The GI50 in [7] was 0.731 µM; in [8], 2.8 µM; in assay [9] it was 2.54 µM; in assay [10] it was 2.85 µM. For the same compound, the TGI in assay [1] is 3.62 µM; in assay [2] it was 4.31 µM; in assay [3] it was 14.1 µM; in assay [4], 11.7 µM; in [5], 10.5 µM; in assay [6], greater than 35.9 µM. Also, the TGI in assay [7] was 5.3 µM; in assay [8], 10.7 µM; in assay [9], 10.3 µM; in assay [10], 16.8 µM.
As to `COc1ccc(Nc2c3ccccc3nc3occc23)cc1`, the GI50 in [1] was 1.27 µM; in assay [2], 2 µM; in assay [3] it was 18.1 µM; in [4] it was 1.49 µM; in assay [5], 7.66 µM; in [6] it was 0.292 µM. The GI50 in assay [7] was 1.55 µM; in [8], 2.35 µM; in assay [9], 3.06 µM; in [10], 1.61 µM. Besides, the TGI in [1] is greater than 24.7 µM; in [3], greater than 52.7 µM; in [5], greater than 100 µM; in assay [7], greater than 33 µM; in assay [8], greater than 100 µM; in assay [9] it was 22.8 µM. The TGI in assay [10] was determined as 20.6 µM.
With `COc1cc(C(C)O)c[n+](CCc2c[nH]c3ccccc23)c1` (stereo not given), the TGI in assay [1], in assay [2], in assay [3], in assay [4], in [5] and in [6] was greater than 100 µM each time. For the same compound, the TGI in assay [7], in assay [8] and in assay [10] was greater than 100 µM each time.
For `COc1ccc(-c2n[nH]nc2-c2cc(OC)c(OC)c(OC)c2)cc1`, the GI50 in [1] was less than 0.01 µM; in assay [2], 0.0358 µM; in [3], less than 0.01 µM; in assay [4] it was less than 0.01 µM; in [5] it was less than 0.01 µM; in [6], less than 0.01 µM. Moreover, the GI50 in assay [7] was 0.0185 µM; in assay [8], less than 0.01 µM. Besides, the TGI in [1] was greater than 40.8 µM; in [2], 0.132 µM; in assay [3], 29.6 µM; in assay [4] it was 0.0481 µM; in assay [5], 9.23 µM; in assay [6], greater than 100 µM. Moreover, the values for the TGI in [8] and in assay [10] were less than 0.01 µM and 50.2 µM, respectively.
As for `COc1cc(C=C2C(=O)NC(=O)NC2=O)cc(OC)c1OC`, the TGI in [1], in assay [2], in assay [3], in [4], in assay [6] and in [7] was greater than 100 µM throughout. Besides, the TGI in [8], in [9] and in assay [10] was greater than 100 µM each time.
Take `COC1(OC)C2(Cl)C(Cl)=C(Cl)C1(Cl)C1C=CC=CC12` (stereo not given): the TGI in assay [2], in assay [3], in assay [4], in assay [5], in assay [6] and in assay [8] was greater than 100 µM throughout. In addition, the TGI in assay [9] and in assay [10] was greater than 100 µM throughout.
Turning to `COc1ccc(/C=C/c2ccnc3ccccc23)c(OC)c1`, the TGI in assay [1], in assay [2], in [3], in [5], in assay [6] and in [7] was greater than 10 µM each time. Further, the TGI in assay [8], in assay [9] and in assay [10] was greater than 10 µM throughout.
For `Cc1ccn2c(c1)nc1nc3ccccc3nc12`, the TGI in assay [1], in assay [2], in assay [3], in assay [4], in assay [5] and in assay [6] was greater than 100 µM throughout. The TGI in [8], in assay [9] and in assay [10] was greater than 100 µM in each case.
Consider `Cc1cc(C(=O)Nc2ncc(Cc3cccc(C(F)(F)F)c3)s2)c2ccccc2n1`, for which the GI50 was 2.54 µM in assay [1]; 0.75 µM in assay [2]; 2.9 µM in [3]; 1.14 µM in assay [4]; 3.46 µM in [5]; 0.0458 µM in [6]. The GI50 in assay [7] is 2.39 µM; in [8] it was 2.33 µM; in assay [9] it was 0.79 µM. For the same compound, the TGI in assay [1], in assay [2], in assay [3], in assay [4], in assay [5] and in [6] was greater than 100 µM throughout. Further, the TGI in assay [7], in [8] and in assay [9] was greater than 100 µM throughout.
As to `O=C1CCN2C(=O)CCN12`, the TGI in [1], in [2], in assay [3], in assay [4], in [6] and in assay [7] was greater than 100 µM throughout. For the same compound, the TGI in [8], in assay [9] and in assay [10] was greater than 100 µM each time.
On to `Clc1nc(Cl)c(Cl)c(-c2ccccc2)n1`, for which the TGI was 30.7 µM in assay [3]; 31.1 µM in assay [5]; 3.99 µM in [7]; 3.2 µM in assay [8]; 32.8 µM in assay [9]; 32.9 µM in assay [10].
Turning to `COc1ccccc1CNCCCN1C(=O)c2ccc3c4c(ccc(c24)C1=O)C(=O)N(CCCOCCCCOCCCN)C3=O`, the GI50 in assay [1] was 0.559 µM; in assay [2], 0.233 µM; in assay [3], 1.19 µM; in assay [4] it was 0.402 µM; in assay [5], 1.25 µM; in [7] it was 0.538 µM. Further, the GI50 was 0.802 µM in assay [8], 1.59 µM in [9] and 1.97 µM in assay [10]. Also, the TGI is 3.54 µM in assay [1]; 0.454 µM in assay [2]; 2.52 µM in assay [3]; 1.29 µM in [4]; 3.67 µM in [5]; 2.55 µM in assay [7]. Besides, the TGI in assay [8] is 2.18 µM; in assay [9] it was 3.05 µM; in assay [10] it was 3.93 µM.
`C[C@@H]1CC(=O)C2CCCC1C2=O` (stereo not given in full): the TGI in assay [1], in assay [2], in [3], in assay [4], in assay [5] and in assay [7] was greater than 100 µM throughout. The TGI in assay [8], in assay [9] and in [10] was greater than 100 µM throughout.
On to `COC(=O)C1=C(C)N(NC(=O)OC(C)(C)C)C(=O)C1=P(c1ccccc1)(c1ccccc1)c1ccccc1`, for which the TGI in assay [1], in [2], in assay [3], in assay [4], in assay [5] and in assay [6] was greater than 100 µM each time. Further, the TGI in [7], in assay [8] and in assay [10] was greater than 100 µM throughout.
With `Oc1cccnc1CN1CCCCC1`, the TGI in [2], in assay [3], in [4], in assay [5], in assay [6] and in assay [7] was greater than 100 µM throughout. In addition, the TGI in assay [8], in [9] and in [10] was greater than 100 µM in each case.
